Laboratory results reported in patent US20200172473A1, “DUAL MODULATORS OF FARNESOID X RECEPTOR AND SOLUBLE EPOXIDE HYDROLASE” (JOHANN WOLFGANG GOETHE-UNIVERSITÄT FRANKFURT AM MAIN, priority 2017, published 2020).
Values joined by “and” are separate entries in the source; they are usually repeats but may differ in a detail not shown here. Identical values can stand only once.

Assays:
recombinant human sEH = target: T1, recombinant human sEH (Homo sapiens, UniProt P34913); experiment: fluorescence-based sEH activity assay with PHOME substrate; assay type: biochemical; details: for IC50: recombinant human sEH, PHOME, read-out: sEH inhibition IC50; for inhibition at 50 µM: read-out: sEH % inhibition at indicated conc.
T1 sequence (P34913 1-555): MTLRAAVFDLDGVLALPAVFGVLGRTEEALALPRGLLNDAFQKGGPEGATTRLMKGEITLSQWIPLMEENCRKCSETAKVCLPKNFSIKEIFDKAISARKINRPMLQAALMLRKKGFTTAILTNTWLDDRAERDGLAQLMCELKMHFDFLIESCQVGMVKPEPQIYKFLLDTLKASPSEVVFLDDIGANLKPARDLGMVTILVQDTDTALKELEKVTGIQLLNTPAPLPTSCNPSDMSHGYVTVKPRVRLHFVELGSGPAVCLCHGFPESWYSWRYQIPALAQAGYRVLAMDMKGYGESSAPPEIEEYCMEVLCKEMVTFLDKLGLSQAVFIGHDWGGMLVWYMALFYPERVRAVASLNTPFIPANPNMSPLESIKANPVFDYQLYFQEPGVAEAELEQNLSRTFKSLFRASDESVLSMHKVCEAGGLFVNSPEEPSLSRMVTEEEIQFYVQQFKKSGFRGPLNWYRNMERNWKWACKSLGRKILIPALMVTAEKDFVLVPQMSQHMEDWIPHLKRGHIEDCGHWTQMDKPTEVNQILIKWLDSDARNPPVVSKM
Description: (§1) This assay is based on a reporter construct containing a firefly luciferase under the control of the FXR response element from bile salt export protein (BSEP). FXR and its hetero dimer partner retinoid X receptor (RXR) as expression constructs under the control of a CMV promoter as well as a constitutively expressed renilla luciferase (SV40 promoter) for normalization and toxicity control were co-transfected. […] The sEH inhibitory potency of the test compounds was quantified in a fluorescence-based assay using recombinant enzyme and the fluorogenic sEH substrate PHOME^37 that is hydrolyzed to a fluorescent 6-methoxynaphtaldehyde by sEH.
The sEH inhibitory potency of the compounds were determined in a fluorescence-based 96-well sEH activity assay using recombinant human enzyme^50,51. Non-fluorescent PHOME (3-phenylcyano-(6-methoxy-2-naphthalenyl)methyl ester 2-oxiraneacetic acid; Cayman Chemicals) which can be hydrolyzed by the sEH to fluorescent 6-methoxynaphthaldehyde served as substrate. Recombinant human sEH (in Bis-Tris buffer, pH 7, with 0.1 mg/mL BSA containing a final concentration of 0.01% Triton-X 100) was pre-incubated with test compounds (in DMSO, final DMSO concentration: 1%) for 30 min at room temperature. […] A blank control (no protein and no compound) as well as a positive control (no compound) were executed. All experiments were conducted in triplicate and repeated in at least three independent experiments. For IC50 calculation, dose-response curves of increasing compound concentrations were recorded.

human FXR = target: T2, human FXR (Homo sapiens, UniProt Q96RI1); experiment: full-length FXR reporter gene (transactivation) assay in HeLa cells; assay type: cell-based; details: for Emax: HeLa, read-out: FXR activation max. rel. activation (converted); for EC50: full-length FXR reporter gene assay, HeLa cells, read-out: FXR activation EC50; for FXR % activation at indicated conc.: 50 μM, relative to GW4064 (1c) at 3 μM = 100%
T2 construct: characterized in a full-length (fl) FXR reporter gene assay in HeLa cells; expressed in transfected cells; host or cells: HeLa
T2 sequence (Q96RI1 1-486): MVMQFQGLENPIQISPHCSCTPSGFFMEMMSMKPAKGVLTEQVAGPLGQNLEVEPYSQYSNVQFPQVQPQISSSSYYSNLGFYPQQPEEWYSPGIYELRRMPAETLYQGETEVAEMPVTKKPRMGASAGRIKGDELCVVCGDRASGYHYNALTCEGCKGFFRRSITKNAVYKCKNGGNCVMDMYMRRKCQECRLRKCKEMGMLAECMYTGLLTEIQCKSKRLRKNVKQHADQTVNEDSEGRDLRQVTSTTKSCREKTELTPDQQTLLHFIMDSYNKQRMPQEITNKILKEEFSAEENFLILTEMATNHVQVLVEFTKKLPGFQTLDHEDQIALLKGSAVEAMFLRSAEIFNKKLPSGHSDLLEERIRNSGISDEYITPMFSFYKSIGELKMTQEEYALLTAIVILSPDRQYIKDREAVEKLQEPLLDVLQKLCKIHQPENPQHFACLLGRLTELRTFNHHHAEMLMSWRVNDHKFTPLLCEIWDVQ
T2 sequence (P19793 1-462 partner): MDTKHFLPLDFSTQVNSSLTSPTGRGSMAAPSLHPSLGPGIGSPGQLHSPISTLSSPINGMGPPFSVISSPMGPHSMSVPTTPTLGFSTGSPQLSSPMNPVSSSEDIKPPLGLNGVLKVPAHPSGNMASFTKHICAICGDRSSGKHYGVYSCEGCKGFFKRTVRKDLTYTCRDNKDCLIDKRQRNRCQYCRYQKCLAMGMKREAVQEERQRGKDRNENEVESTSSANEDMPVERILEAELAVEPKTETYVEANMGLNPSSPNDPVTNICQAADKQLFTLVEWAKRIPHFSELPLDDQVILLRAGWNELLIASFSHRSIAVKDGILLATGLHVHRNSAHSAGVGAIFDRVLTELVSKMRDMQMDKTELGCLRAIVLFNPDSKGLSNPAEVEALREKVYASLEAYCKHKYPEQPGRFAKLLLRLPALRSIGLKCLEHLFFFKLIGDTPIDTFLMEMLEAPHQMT
Description: as §1
Plasmids: pcDNA3-hFXR contains the sequence of human FXR and was already published elsewhere.^47 pGL3 basic (Promega Corporation, Fitchburg, Wis., USA) was used as a reporter plasmid, with a shortened construct of the promotor of the bile salt export protein (BSEP) cloned into the SacI/NheI cleavage site in front of the luciferase gene.^48 pRL-V40 (Promega) was transfected as a control for normalization of transfection efficiency and cell growth. pSG5-hRXR was already published elsewhere as well.^49
Assay procedure: HeLa cells were grown in DMEM high glucose supplemented with 10% FCS, sodium pyruvate (1 mM), penicillin (100 U/mL) and streptomycin (100 μg/mL) at 37° C. and 5% CO2. […] Transient transfection of HeLa cells with BSEP-pGL3, pRL-SV40 and the expression plasmids pcDNA3-hFXR and pSG5-hRXR was carried out using calcium phosphate transfection method. […] Each concentration was tested in triplicate wells and each experiment was repeated independently at least three times. […] Luminescence was measured with a Tecan Infinite M200 luminometer (Tecan Deutschland GmbH, Crailsheim, Germany). Normalization of transfection efficiency and cell growth was done by division of firefly luciferase data by renilla luciferase data multiplied by 1000 resulting in relative light units (RLU). Fold activation was obtained by dividing the mean RLU of the tested compound at a respective concentration by the mean RLU of untreated control. […] EC50 and standard error of the mean values were calculated with the mean relative activation values of at least three independent experiments by SigmaPlot 10.0 (Systat Software GmbH, Erkrath, Germany) using a four parameter logistic regression.

Structure (SMILES) | Emax (human FXR) | also measured
CC(C)(C)c1ccc(C(=O)NCc2ccc(N)cc2Cl)cc1 [69a, N-(4-Amino-2-chlorobenzyl)-4-(tert-butyl)benzamide] | 29% | IC50 (recombinant human sEH): 40 ± 6 nM; EC50 (human FXR): 46 nM and 45 nM
Cc1ccc(C(=O)NCc2ccc(C(=O)O)cc2)cc1C [compound 10] | 12% | inhibition at 50 µM (recombinant human sEH): 52 ± 1%
O=C(O)c1ccc(CNC(=O)c2cccc(-c3ccccc3)c2)cc1 [compound 12] | 14% | –
O=C(O)c1ccc(CNC(=O)c2ccc(-c3ccccc3)cc2)cc1 [compound 13] | 24% | –
O=C(O)c1ccc(CNC(=O)c2ccc(Cl)c(Cl)c2)cc1 [compound 14] | – | FXR % activation at indicated conc. (human FXR): inactive (50 μM)
COc1ccc(C(=O)NCc2ccc(C(=O)O)cc2)cc1OC [compound 15] | 18% | inhibition at 50 µM (recombinant human sEH): 26 ± 2%
O=C(O)c1ccc(CNC(=O)c2ccc3ccccc3c2)cc1 [compound 17] | 18% | inhibition at 50 µM (recombinant human sEH): 45 ± 1%
CC(C)(C)c1ccc(C(=O)NCc2ccc(C(=O)O)cc2)cc1 [compound 18] | 13% | –
COc1cc(C(=O)NCc2ccc(C(=O)O)cc2)ccc1C(C)(C)C [compound 20] | 23% | –
CC(C)(C)c1ccc(NC(=O)Nc2ccc(C(=O)O)cc2)cc1 [compound 21] | 14% | –
CC(C)(C)c1ccc(C(=O)NCc2cccc(C(=O)O)c2)cc1 [compound 22] | 14% | inhibition at 50 µM (recombinant human sEH): 26 ± 2%
CC(C)(C)c1ccc(C(=O)NCc2ccc(CC(=O)O)cc2)cc1 [compound 23] | 19% | –
CC(C)(C)c1ccc(C(=O)NCc2ccc(CCC(=O)O)cc2)cc1 [compound 24] | 16% | –
Cc1cc(CNC(=O)c2ccc(C(C)(C)C)cc2)ccc1C(=O)O [compound 26] | 14% | inhibition at 50 µM (recombinant human sEH): 53 ± 1%
CC(C)(C)c1ccc(C(=O)NCc2ccc(C(=O)O)c(F)c2)cc1 [compound 27] | 28% | –
CC(C)(C)c1ccc(C(=O)NCc2ccc(C(=O)O)c(Cl)c2)cc1 [compound 28] | 21% | inhibition at 50 µM (recombinant human sEH): 50 ± 1%
Cc1cc(C(=O)O)ccc1CNC(=O)c1ccc(C(C)(C)C)cc1 [compound 29] | – | FXR % activation at indicated conc. (human FXR): inactive (50 μM)

Structure (SMILES) | Emax (human FXR) | also measured
CC(C)(C)c1ccc(C(=O)NCc2ccc(C(=O)O)cc2F)cc1 [compound 30] | 26% | –
CC(C)(C)c1ccc(C(=O)NCc2ccc(C(=O)O)cc2Cl)cc1 [compound 31] | 25% | –
CC(NC(=O)c1ccc(C(C)(C)C)cc1)c1ccc(C(=O)O)cc1 (stereo not shown) [compound 32] | 24% | inhibition at 50 µM (recombinant human sEH): 37 ± 1%
CC(C)(C)c1ccc(C(=O)NCc2ccc(CO)cc2)cc1 [compound 33] | – | FXR % activation at indicated conc. (human FXR): inactive (50 μM)
CC(C)(C)c1ccc(C(=O)NCc2ccc(C#N)cc2)cc1 [compound 36] | – | FXR % activation at indicated conc. (human FXR): inactive (50 μM)
CC(C)(C)c1ccc(C(=O)NCc2ccc(C(N)=O)cc2)cc1 [compound 37] | 27% | –
CNC(=O)c1ccc(CNC(=O)c2ccc(C(C)(C)C)cc2)cc1 [compound 38] | 29% | –
CN(C)C(=O)c1ccc(CNC(=O)c2ccc(C(C)(C)C)cc2)cc1 [compound 39] | 17 ± 100% | –
CC(=O)Nc1ccc(CNC(=O)c2ccc(C(C)(C)C)cc2)cc1 [compound 40] | 31% | –
CC(C)(C)c1ccc(C(=O)NCc2ccc(NC(=O)C(F)(F)F)cc2)cc1 [compound 41] | 20% | –
CC(C)(C)c1ccc(C(=O)NCc2ccc(N)cc2)cc1 [compound 42] | – | FXR % activation at indicated conc. (human FXR): inactive (50 μM)
CC(C)(C)c1ccc(C(=O)NCc2ccc(-c3nnn[nH]3)cc2)cc1 [compound 43] | 23% | –
CC(C)(C)c1ccc(C(=O)NCc2ccc(S(N)(=O)=O)cc2)cc1 [compound 44] | 16% | –
CC(=O)NS(=O)(=O)c1ccc(CNC(=O)c2ccc(C(C)(C)C)cc2)cc1 [compound 45] | – | FXR % activation at indicated conc. (human FXR): inactive (50 μM)
CC(C)(C)c1ccc(C(=O)NCc2ccc(NS(C)(=O)=O)cc2)cc1 [compound 46] | 22% | –
CC(C)(C)c1ccc(C(=O)NCc2ccc(SC(F)(F)F)cc2)cc1 [compound 54] | 19% | –
CC(C)(C)c1ccc(C(=O)NCc2ccc(S(N)(=O)=O)cc2F)cc1 [compound 55] | 34% | –

Further lines, with some results ahead:

Emax (human FXR) | Structure (SMILES) | also measured
21% | CC(C)(C)c1ccc(C(=O)NCc2ccc(OCC(=O)O)cc2)cc1 [compound 25] | –
22% | CC(C)(C)c1ccc(C(=O)NCc2ccc(C=O)cc2)cc1 [compound 34] | –
29% | CC(=O)c1ccc(CNC(=O)c2ccc(C(C)(C)C)cc2)cc1 [compound 35] | –
19% | COc1ccc(CNC(=O)c2ccc(C(C)(C)C)cc2)cc1 [compound 47] | –
31% | CCOc1ccc(CNC(=O)c2ccc(C(C)(C)C)cc2)cc1 [compound 48] | –
26% | CC(C)Oc1ccc(CNC(=O)c2ccc(C(C)(C)C)cc2)cc1 [compound 49] | –
26% | CC(C)(C)c1ccc(C(=O)NCc2ccc(OC(F)(F)F)cc2)cc1 [compound 50] | –
33% | CSc1ccc(CNC(=O)c2ccc(C(C)(C)C)cc2)cc1 [compound 51] | IC50 (recombinant human sEH): ~100 nM; EC50 (human FXR): ~100 nM
24% | C[S+]([O-])c1ccc(CNC(=O)c2ccc(C(C)(C)C)cc2)cc1 (stereo not shown) [compound 52] | –
34% | CC(C)(C)c1ccc(C(=O)NCc2ccc(S(C)(=O)=O)cc2)cc1 [compound 53] | –
